Assay results as given in patent US4508645A, “Analogs of neurohypophysial hormones with inhibition effects” (Ceskoslovenska akademie ved, priority 1982, dated 1985).

How the values were obtained:
uterus in vitro = experiment: uterotonic efficiency in vitro, inhibition activity pA2; format: cell-based; settings: pA2, negative logarithm of molar inhibitor concentration; decimal commas
Description: (§1) Certain biological effects of the analogs of oxytocin and vasopressin are set forth in Table I. The inhibition effects of compounds in an in vitro test are expressed as values of pA2, which is the negative logarithm of the molar concentration of inhibitor. This reduces the response of 2X units of an agonistic compound to be equal to the response of 1X units in the absence of inhibitor (Schild, Brit. J. Pharmacol. 2, 189, 1947; Dyckes et al, J. Med. Chem. 17, 160, 1974). In an […] test (uterus in vitro), the value of pA2 corresponds with the negative logarithm of an inhibitor constant according to the relationship [formula] wherein B is the concentration of inhibitor (M), A50 is the concentration of agonistic compound leading to 50% of the maximum effect, and A50B is the concentration of agonistic compound leading to 50% of the maximum effect in the presence of inhibitor B (Eggena et al, J. Gen. Physiol. 52, 465, 1968).

uterus in situ = experiment: uterotonic efficiency in situ, inhibition activity pA2; format: in vivo; settings: pA2, negative logarithm of inhibitor constant; decimal commas
Description: as §1

pressor = pressor efficiency, inhibition activity pA2; format: in vivo; settings: decimal commas
Description: as §1

galactogogic = galactogogic efficiency, inhibition activity pA2; format: in vivo; settings: for Inhibition activity pA2 in the determination of efficiency galactogogic: decimal commas
Description: as §1

Compound	Inhibition activity pA2 in the determination of efficiency uterotonic in vitro (uterus in vitro)	Inhibition activity pA2 in the determination of efficiency uterotonic in situ (uterus in situ)	Inhibition activity pA2 in the determination of efficiency pressor (pressor)	Inhibition activity pA2 in the determination of efficiency galactogogic (galactogogic)	galactogogic agonistic activity (galactogogic; footnote b: agonistic activity, not pA2)
CC1(C)SSC[C@H](N)C(=O)N[C@@H](Cc2ccc(O)cc2)C(=O)N[C@@H](Cc2ccccc2)C(=O)N[C@@H](CCC(N)=O)C(=O)N[C@@H](CC(N)=O)C(=O)N[C@@H]1C(=O)N1CCC[C@H]1C(=O)N[C@@H](CCCCN)C(=O)NCC(N)=O [Ih, [6-Penicilamine, 8-lysine]vasopressin]	6,00	6,16	6,73	–	–
[1-Penicilamine, 2-O-methyltyrosine]oxytocin [Ib]	8,0	6,9	7,2	6,8	–
COc1ccc(C[C@@H]2NC(=O)[C@@H](N)C(C)(C)SSC[C@@H](C(=O)N3CCC[C@H]3C(=O)N[C@@H](CCCCN)C(=O)NCC(N)=O)NC(=O)[C@H](CC(N)=O)NC(=O)[C@H](CCC(N)=O)NC(=O)[C@H](Cc3ccccc3)NC2=O)cc1 [If, [1-Penicilamine, 2-O-methyltyrosine, 8-lysine]vasopressin]	8,1	6,9	7,4	6,8	–
COc1ccc(C[C@@H]2NC(=O)[C@@H](NC(C)=O)C(C)(C)SSC[C@@H](C(=O)N3CCC[C@H]3C(=O)N[C@@H](CCCCN)C(=O)NCC(N)=O)NC(=O)[C@H](CC(N)=O)NC(=O)[C@H](CCC(N)=O)NC(=O)[C@H](Cc3ccccc3)NC2=O)cc1 [Ig, [1-N-acetylpenicilamine, 2-O-methyltyrosine, 8-lysine]vasopressin]	–	–	6,7	ineffective	–
CC[C@H](C)[C@@H]1NC(=O)[C@H](Cc2ccc(O)cc2)NC(=O)[C@@H](NC(C)=O)C(C)(C)SSC[C@@H](C(=O)N2CCC[C@H]2C(=O)N[C@@H](CC(C)C)C(=O)NCC(N)=O)NC(=O)[C@H](CC(N)=O)NC(=O)[C@H](CCC(N)=O)NC1=O [Ia, [1-N-acetylpenicilamine]oxytocin]	4,4	–	ineffective	–	–
CC1(C)SSC[C@@H](C(=O)N2CCC[C@H]2C(=O)N[C@@H](CCCCN)C(=O)NCC(N)=O)NC(=O)[C@H](CC(N)=O)NC(=O)[C@H](CCC(N)=O)NC(=O)[C@H](Cc2ccccc2)NC(=O)[C@H](Cc2ccc(O)cc2)NC(=O)[C@H]1N [Id, [1-Penicilamine, 8-lysine]vasopressin]	6,6	6,3	6,9	–	–
CC(=O)N[C@@H]1C(=O)N[C@@H](Cc2ccc(O)cc2)C(=O)N[C@@H](Cc2ccccc2)C(=O)N[C@@H](CCC(N)=O)C(=O)N[C@@H](CC(N)=O)C(=O)N[C@H](C(=O)N2CCC[C@H]2C(=O)N[C@@H](CCCCN)C(=O)NCC(N)=O)CSSC1(C)C [Ie, [1-N-Actylpenicilamine, 8-lysine]vasopressin]	5,5	6,3	ineffective	ineffective	–
CC[C@H](C)[C@@H]1NC(=O)[C@H](Cc2ccc(OC)cc2)NC(=O)[C@@H](NC(C)=O)C(C)(C)SSC[C@@H](C(=O)N2CCC[C@H]2C(=O)N[C@@H](CC(C)C)C(=O)NCC(N)=O)NC(=O)[C@H](CC(N)=O)NC(=O)[C@H](CCC(N)=O)NC1=O [Ic, [1-N-acetylpenicilamine, 2-O-methyltyrosine]oxytocin]	5,4	–	6,4	–	0,45 I.U./mg
CC1(C)SSC(C)(C)[C@@H](C(=O)N2CCC[C@H]2C(=O)N[C@@H](CCCCN)C(=O)NCC(N)=O)NC(=O)[C@H](CC(N)=O)NC(=O)[C@H](CCC(N)=O)NC(=O)[C@H](Cc2ccccc2)NC(=O)[C@H](Cc2ccc(O)cc2)NC(=O)[C@H]1N [Ii, [1-Penicilamine, 6-penicilamine, 8-lysine]vasopressin]	6,80	6,80	7,18	–	–
